# Results from patent publication US20250346585A1 (Alexion Pharmaceuticals, Inc., priority 2022, published 2025).
# Where two headings read alike, the source gives them in different places.
# Target: Human complement C1s enzyme (Homo sapiens (Human), UniProt P09871)
# Assay: Human C1s enzyme assay
# Type: biochemical
# Settings: read-out: IC50 (Stars)
# Procedure, shortened: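 Purified serum-derived human C1s (1.16 nM final) preincubated 5 min at room temperature with compound in 50 mM Tris, 1 M NaCl, pH 7.5. Z-L-Lys-SBzl thioester substrate and DTNB added (100 μM each, final); A405 read every 30 s for 30 min. IC50 from nonlinear regression of reaction rates against compound concentration.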
# [1] = Human complement C1s enzyme 1.16 nM, substrate Z-L-Lys-SBzl, assay of Example 3
# [2] = Human C1s enzyme assay of Example 3
# [3] = Human complement C1s enzyme 1.16 nM, substrate Z-L-Lys-SBzl 100 μM, assay of Example 3
# Sequence of Human complement C1s enzyme (P09871 438-688 limits assumed): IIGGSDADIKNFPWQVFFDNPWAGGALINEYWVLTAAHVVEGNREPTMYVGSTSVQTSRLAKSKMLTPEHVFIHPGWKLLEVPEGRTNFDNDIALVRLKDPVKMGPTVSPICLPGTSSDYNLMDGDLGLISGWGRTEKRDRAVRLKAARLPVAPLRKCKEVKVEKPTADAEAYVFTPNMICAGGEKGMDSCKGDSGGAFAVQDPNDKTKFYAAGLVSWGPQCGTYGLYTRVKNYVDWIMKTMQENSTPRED
# Sequence of Human complement C1s enzyme (P09871 16-437 partner limits assumed): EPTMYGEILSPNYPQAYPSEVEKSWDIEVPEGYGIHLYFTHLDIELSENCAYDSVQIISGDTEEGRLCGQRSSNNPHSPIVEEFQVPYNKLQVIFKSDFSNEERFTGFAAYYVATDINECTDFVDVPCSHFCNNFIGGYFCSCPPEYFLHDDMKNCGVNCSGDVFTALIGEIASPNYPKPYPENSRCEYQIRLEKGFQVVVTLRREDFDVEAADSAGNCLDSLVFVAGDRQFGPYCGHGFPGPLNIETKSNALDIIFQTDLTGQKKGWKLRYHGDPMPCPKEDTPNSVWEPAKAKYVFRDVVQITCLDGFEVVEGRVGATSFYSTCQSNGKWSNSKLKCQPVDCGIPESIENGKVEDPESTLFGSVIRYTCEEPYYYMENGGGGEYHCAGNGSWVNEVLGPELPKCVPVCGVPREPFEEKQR
SMILES,IC50 [3] [µM],other results
"C[C@@H](NC(=O)[C@@H]1C[C@]2(COCCCN(C)C)C[C@@H]2N1C(=O)CNC(=O)c1ccc2c(c1)-c1ccccc1C2(F)F)c1cc(C(=N)N)cs1 [Compound 422, (1S,3S,5R)-N-((R)-1-(4-carbamimidoylthiophen-2-yl)ethyl)-2-((9,9-difluoro-9H-fluorene-3-carbonyl)glycyl)-5-((3-(dimethylamino)propoxy)methyl)-2-azabicyclo[3.1.0]hexane-3-carboxamide]",,IC50 [1]: < 0.1 µM
"C[C@@H](NC(=O)[C@@H]1CC2(CN1C(=O)CNC(=O)c1ccc3c(c1)-c1ccccc1C3(F)F)OCCO2)c1cc(-c2nccs2)cs1 [Compound 114, (S)-7-((9,9-difluoro-9H-fluorene-3-carbonyl)glycyl)-N—((R)-1-(4-(thiazol-2-yl)thiophen-2-yl)ethyl)-1,4-dioxa-7-azaspiro[4.4]nonane-8-carboxamide]",,IC50 [2]: > 1 µM
"Cc1cccc2c1-c1cc(C(=O)NCC(=O)N3CC4(C[C@H]3C(=O)N[C@H](C)c3cc(C(=N)N)cs3)OCCO4)ccc1C2(F)F [Compound 177, (S)—N—((R)-1-(4-carbamimidoylthiophen-2-yl)ethyl)-7-((9,9-difluoro-5-methyl-9H-fluorene-3-carbonyl)glycyl)-1,4-dioxa-7-azaspiro[4.4]nonane-8-carboxamide]",,IC50 [2]: < 0.1 µM
"N=C(N)c1csc(CNC(=O)[C@@H]2CC3(CN2C(=O)CNC(=O)c2ccc(-c4ccncc4F)cc2)OCCO3)c1 [Compound 266, (S)—N-((4-carbamimidoylthiophen-2-yl)methyl)-7-((4-(3-fluoropyridin-4-yl)benzoyl)glycyl)-1,4-dioxa-7-azaspiro[4.4]nonane-8-carboxamide]",< 0.1,
"C[C@@H](NC(=O)[C@@H]1C[C@@H](OC(F)F)CN1C(=O)CNC(=O)c1ccc2c(c1)oc1ccccc12)c1cc(C(=N)N)cs1 [Compound 361, (2S,4R)—N—((R)-1-(4-carbamimidoylthiophen-2-yl)ethyl)-1-((dibenzo[b,d]furan-3-carbonyl)glycyl)-4-(difluoromethoxy)pyrrolidine-2-carboxamide]",< 0.1,
"C[C@@H](NC(=O)[C@@H]1CC2(CN1C(=O)CNC(=O)c1ccc3c(c1)-c1ccccc1C3(F)F)OCCO2)c1cc(C(N)=O)cs1 [Compound 200, (S)—N—((R)-1-(4-carbamoylthiophen-2-yl)ethyl)-7-((9,9-difluoro-9H-fluorene-3-carbonyl)glycyl)-1,4-dioxa-7-azaspiro[4.4]nonane-8-carboxamide]",> 1,
"CO[C@@H]1C[C@@H](C(=O)N[C@H](CO)c2cc(C(=N)N)cs2)N(C(=O)CNC(=O)c2ccc3c(c2)-c2ccccc2C3(F)F)C1 [Compound 407, (2S,4R)—N—((R)-1-(4-carbamimidoylthiophen-2-yl)-2-hydroxyethyl)-1-((9,9-difluoro-9H-fluorene-3-carbonyl)glycyl)-4-methoxypyrrolidine-2-carboxamide]",,IC50 [1]: < 0.1 µM
"CS(=O)(=O)c1ccc(-c2ccc(C(=O)NCC(=O)N3CC4(C[C@H]3C(=O)NCc3cc(C(=N)N)cs3)OCCO4)cc2)cc1 [Compound 183, (S)—N-((4-carbamimidoylthiophen-2-yl)methyl)-7-((4′-(methylsulfonyl)-[1,1′-biphenyl]-4-carbonyl)glycyl)-1,4-dioxa-7-azaspiro[4.4]nonane-8-carboxamide]",,IC50 [2]: < 0.1 µM
"C[C@@H](NC(=O)[C@@H]1C[C@](F)(CF)CN1C(=O)CNC(=O)c1ccc2c(c1)-c1ccccc1C2(F)F)c1cc(C(=N)N)cs1 [Compound 11, (2S,4R)—N-[(1R)-1-(4-carbamimidoylthiophen-2-yl)ethyl]-1-{2-[(9,9-difluorofluoren-3-yl)formamido]acetyl}-4-fluoro-4-(fluoromethyl) pyrrolidine-2-carboxamide]",,IC50 [2]: < 0.1 µM
"N=C(N)c1csc(CNC(=O)[C@@H]2CC3(CN2C(=O)CN2Cc4ccc(-c5ccc(F)cc5F)cc4C2=O)OCCO3)c1 [Compound 229, (S)—N-((4-carbamimidoylthiophen-2-yl)methyl)-7-(2-(6-(2,4-difluorophenyl)-1-oxoisoindolin-2-yl)acetyl)-1,4-dioxa-7-azaspiro[4.4]nonane-8-carboxamide]",< 0.1,
"C[C@@H](NC(=O)[C@@H]1CC(c2ncco2)CN1C(=O)CNC(=O)c1ccc2c(c1)-c1ccccc1C2(F)F)c1cc(C(=N)N)cs1 (stereo partly drawn) [Compound 416, (S)—N—((R)-1-(4-carbamimidoylthiophen-2-yl)ethyl)-1-((9,9-difluoro-9H-fluorene-3-carbonyl)glycyl)-4-(oxazol-2-yl)pyrrolidine-2-carboxamide]",,IC50 [1]: < 0.1 µM
"C[C@@]12C[C@@H]1N(C(=O)CNC(=O)c1ccc(Oc3ccccc3)cc1)[C@H](C(=O)NCc1cccc(Cl)c1Cl)C2 [Compound 387, (1S,3S,5S)—N-(2,3-dichlorobenzyl)-5-methyl-2-((4-phenoxybenzoyl)glycyl)-2-azabicyclo[3.1.0]hexane-3-carboxamide]",> 1,
"C[C@@H](NC(=O)[C@@H]1C[C@@H](C(F)(F)F)CN1C(=O)CNC(=O)c1ccc(Oc2ccc(F)cc2)cc1)c1cc(C(=N)N)cs1 [Compound 307, (2S,4R)—N—((R)-1-(4-carbamimidoylthiophen-2-yl)ethyl)-1-((4-(4-fluorophenoxy)benzoyl)glycyl)-4-(trifluoromethyl)pyrrolidine-2-carboxamide]",< 0.1,
"C[C@@H](NC(=O)[C@@H]1C[C@@H](c2ccncc2)CN1C(=O)CNC(=O)c1ccc2c(c1)-c1ccccc1C2(F)F)c1cc(C(=N)N)cs1 [Compound 377, (2S,4S)—N—((R)-1-(4-carbamimidoylthiophen-2-yl)ethyl)-1-((9,9-difluoro-9H-fluorene-3-carbonyl)glycyl)-4-(pyridin-4-yl)pyrrolidine-2-carboxamide]",< 0.1,
"O=C(NCC(=O)N1CC2(C[C@H]1C(=O)NCc1cc(NC3=NCCCN3)cs1)OCCO2)c1ccc(Oc2ccc(F)cc2)cc1 [Compound 142, (S)-7-((4-(4-fluorophenoxy)benzoyl)glycyl)-N-((4-((1,4,5,6-tetrahydropyrimidin-2-yl)amino)thiophen-2-yl)methyl)-1,4-dioxa-7-azaspiro[4.4]nonane-8-carboxamide]",,IC50 [2]: > 1 µM
"CC1c2ccccc2-c2ccc(C(=O)NCC(=O)N3C[C@@](F)(CF)C[C@H]3C(=O)N[C@H](C)c3cc(C(=N)N)cs3)cc21 (stereo partly drawn) [Compound 371, (2S,4R)—N—((R)-1-(4-carbamimidoylthiophen-2-yl)ethyl)-4-fluoro-4-(fluoromethyl)-1-((9-methyl-9H-fluorene-2-carbonyl)glycyl)pyrrolidine-2-carboxamide]",< 0.1,
"COC1c2ccccc2-c2cc(C(=O)NCC(=O)N3CC4(C[C@H]3C(=O)N[C@H](C)c3cc(C(=N)N)cs3)OCCO4)ccc21 (stereo partly drawn) [Compound 277, (8S)—N—((R)-1-(4-carbamimidoylthiophen-2-yl)ethyl)-7-((9-methoxy-9H-fluorene-3-carbonyl)glycyl)-1,4-dioxa-7-azaspiro[4.4]nonane-8-carboxamide]",< 0.1,

# Second part, led by results:
IC50 [3] [µM],SMILES,other results
< 0.1,"CC(C)S(=O)(=O)[C@@H]1C[C@@H](C(=O)N[C@H](C)c2cc(C(=N)N)cs2)N(C(=O)CNC(=O)c2ccc3c(c2)-c2ccccc2C3(F)F)C1 [Compound 280, (2S,4R)—N—((R)-1-(4-carbamimidoylthiophen-2-yl)ethyl)-1-((9,9-difluoro-9H-fluorene-3-carbonyl)glycyl)-4-(isopropylsulfonyl)pyrrolidine-2-carboxamide]",
< 0.1,"C[C@@H](NC(=O)[C@@H]1C[C@@H](F)CN1C(=O)CNC(=O)c1ccc2c(c1)-c1ccccc1C2(F)F)c1cc(C(=N)N)cs1 [Compound 202, (2S,4R)—N—((R)-1-(4-carbamimidoylthiophen-2-yl)ethyl)-1-((9,9-difluoro-9H-fluorene-3-carbonyl)glycyl)-4-fluoropyrrolidine-2-carboxamide]",
< 0.1,"C[C@@H](NC(=O)[C@@H]1C[C@]2(COCCCN)C[C@@H]2N1C(=O)CNC(=O)c1ccc2c(c1)-c1ccccc1C2(F)F)c1cc(C(=N)N)cs1 [Compound 382, (1S,3S,5R)-5-((3-aminopropoxy)methyl)-N—((R)-1-(4-carbamimidoylthiophen-2-yl)ethyl)-2-((9,9-difluoro-9H-fluorene-3-carbonyl)glycyl)-2-azabicyclo[3.1.0]hexane-3-carboxamide]",
